The values that follow come from patent publication US10995068B2, “Synthetic sphingolipid-like molecules, drugs, methods of their synthesis and methods of treatment” (The Regents of the University of California, priority 2015, dated 2021).

The data set concerns SW620 cells. Description: Phosphorylation in intact cells by UPLC-MS/MS, SW620. It is filed as in vitro ADME, human. As to conditions: 10 μM, 16 h incubation, percent of total compound recovered by UPLC-MS/MS. On the procedure:
Mass spectrometric quantification: One million PC3 or 5 million SW620 cells in one well of a 6 well plate are treated with 10 μM FTY720 or 5 for 16 h. Media (100 μl) is removed from the well and combined with 100 μl of acetonitrile. Cells are collected by scraping, pelleted, and re-suspended in 100 μl of HPLC-grade water followed by the addition of 100 μl acetonitrile. Seventy-five nanograms of the compounds not being quantified (FTY720 and FTY720-P for analysis of the phosphorylation of 5, or 5 and 5-P for the analysis of FTY720/FYT720-P) is added to serve as an internal standard to allow correction for loss of compound during sample preparation. […] Insoluble material is again removed by centrifugation and the supernatant analyzed for compound content. Twenty microliters of this de-proteinated sample is analyzed by UPLC-MS/MS (Waters Micromass Quattro Premier XE) equipped with a C18 reversed phase column (Waters) using an acetonitrile (+0.2% acetic acid) gradient elution. […] The cone voltages are 30V for FTY720 and 5, and 20V for FTY720-P and 5-P. A standard curve is generated using pure compounds to allow for quantification; standard curves were linear from 50-1000 ng/ml with an R^2 of 0.98 or greater. […]

The structures appear in SMILES notation.

Consider `CCCCCCCCc1ccc([C@H]2CCN[C@@H]2CO)cc1.Cl` [Compound 5, (2S,3R)-2-(hydroxymethyl)-3-(4-octylphenyl)Pyrrolidinium chloride], for which the “efficiency of phosphorylation in intact cells” value is “phosphorylated slightly more efficiently than FTY720”.
